# Earlier results in PubChem BioAssay AID1259409 (Chemical Carcinogenesis Research Information System (CCRIS), 2018).
# Several values for one entry are separate records, joined by “and”; a condition that tells them apart may be missing. Equal values may be shown once.
# Tested on: rodent chemically induced tumor inhibition, incidence and multiplicity
# Test: CCRIS tumor inhibitor studies
# Details: for tumour outcome (control, treated, inhibition, significance): Promoter: NONE USED; for outcome: Carcinogen: 4-NITROQUINOLINE 1-OXIDE [56-57-5], Route [Inhibitor]: ORAL (DIET), Dose [Carcinogen]: 20 PPM FOR 8 WKS STARTING AT 7 WKS OF AGE (STUDY DURATION: 32 WKS)
smiles,measurement,setting,value
NCCCCNCCCN,"tumour outcome (control, treated, inhibition, significance)","Carcinogen: TRANS-5-AMINO-3-[2-(5-NITRO-2-FURYL)VINYL]-1,2,4-OXADIAZOLE;SQL8506, 28754-68-9, Carcinogen: TRANS-5-AMINO-3-[2-(5-NITRO-2-FURYL)VINYL]-1,2,4-OXADIAZOLE;SQL8506, 28754-68-9, Dose [Inhibitor]: 150 MG/KG 16 HR BEFORE THE 1ST CARCINOGEN DOSE FOLLOWED BY ADDITIONAL DOSES IMMEDIATELY BEFORE EACH DOSE OF CARCINOGEN (, Route [Inhibitor]: INTRAPERITONEAL, Species: MOUSE, Strain/Sex: CD-1/FEMALE, Target Tissue: Type of Lesion: HEMATOPOIETIC SYSTEM: MYELOID LEUKEMIA, Dose [Carcinogen]: 1 G/KG 2/D FOR 5 D EVERY 4 WK FOR 3 COURSES OF TREATMENT","7/137 (5%), 2/31 (6%), -20%, not calculated"
same,"tumour outcome (control, treated, inhibition, significance)","Carcinogen: TRANS-5-AMINO-3-[2-(5-NITRO-2-FURYL)VINYL]-1,2,4-OXADIAZOLE;SQL8506, 28754-68-9, Carcinogen: TRANS-5-AMINO-3-[2-(5-NITRO-2-FURYL)VINYL]-1,2,4-OXADIAZOLE;SQL8506, 28754-68-9, Dose [Inhibitor]: 150 MG/KG 16 HR BEFORE THE 1ST CARCINOGEN DOSE FOLLOWED BY ADDITIONAL DOSES IMMEDIATELY BEFORE EACH DOSE OF CARCINOGEN (, Route [Inhibitor]: INTRAPERITONEAL, Species: MOUSE, Strain/Sex: CD-1/FEMALE, Target Tissue: Type of Lesion: LYMPHOID TISSUE: NONTHYMIC LYMPHOMA, Dose [Carcinogen]: 1 G/KG 2/D FOR 5 D EVERY 4 WK FOR 3 COURSES OF TREATMENT","8/137 (6%), 1/31 (3%), 50%, not calculated"
same,"tumour outcome (control, treated, inhibition, significance)","Carcinogen: TRANS-5-AMINO-3-[2-(5-NITRO-2-FURYL)VINYL]-1,2,4-OXADIAZOLE;SQL8506, 28754-68-9, Carcinogen: TRANS-5-AMINO-3-[2-(5-NITRO-2-FURYL)VINYL]-1,2,4-OXADIAZOLE;SQL8506, 28754-68-9, Dose [Inhibitor]: 150 MG/KG 16 HR BEFORE THE 1ST CARCINOGEN DOSE FOLLOWED BY ADDITIONAL DOSES IMMEDIATELY BEFORE EACH DOSE OF CARCINOGEN (, Route [Inhibitor]: INTRAPERITONEAL, Species: MOUSE, Strain/Sex: CD-1/FEMALE, Target Tissue: Type of Lesion: LYMPHOID TISSUE: THYMIC LYMPHOMA, Dose [Carcinogen]: 1 G/KG 2/D FOR 5 D EVERY 4 WK FOR 3 COURSES OF TREATMENT","22/137 (16%), 4/31 (13%), 19%, not calculated"
same,"tumour outcome (control, treated, inhibition, significance)","Carcinogen: TRANS-5-AMINO-3-[2-(5-NITRO-2-FURYL)VINYL]-1,2,4-OXADIAZOLE;SQL8506, 28754-68-9, Carcinogen: TRANS-5-AMINO-3-[2-(5-NITRO-2-FURYL)VINYL]-1,2,4-OXADIAZOLE;SQL8506, 28754-68-9, Dose [Inhibitor]: 150 MG/KG 16 HR BEFORE THE 1ST CARCINOGEN DOSE FOLLOWED BY ADDITIONAL DOSES IMMEDIATELY BEFORE EACH DOSE OF CARCINOGEN (, Route [Inhibitor]: INTRAPERITONEAL, Species: MOUSE, Strain/Sex: CD-1/FEMALE, Target Tissue: Type of Lesion: STOMACH: SQUAMOUS SARCOMA, Dose [Carcinogen]: 1 G/KG 2/D FOR 5 D EVERY 4 WK FOR 3 COURSES OF TREATMENT","60/137 (44%), 7/31 (23%), 48%, not calculated"
O=P(O)(O)O,"tumour outcome (control, treated, inhibition, significance)","Carcinogen: N-ETHYL-N-HYDROXYETHYLNITROSAMINE, 13147-25-6, Dose [Inhibitor]: 0, 10% IN DIET OF UNILATERALLY NEPHRECTOMIZED RATS BEGINNING POST CARCINOGEN TREATMENT AND CONTINUING FOR 18 WK (STUDY D, Route [Inhibitor]: ORAL, Species: RAT, Strain/Sex: WISTAR/MALE, Target Tissue: Type of Lesion: KIDNEY: RENAL CELL TUMOR, Dose [Carcinogen]: 1000 PPM IN DIET FOR 2 WK","5/20 (25%), 3/18 (17%), 32%, not calculated"
Cc1occc(=O)c1O,"tumour outcome (control, treated, inhibition, significance)","Carcinogen: BENZO[A]PYRENE, 50-32-8, Dose [Inhibitor]: 0.034 MMOL/G IN DIET BEGINNING 1 WK PRIOR TO CARCINOGEN DOSE AND CONTINUING FOR 3 D POST LAST CARCINOGEN DOSE (STUDY DUR, Route [Inhibitor]: ORAL, Species: MOUSE, Strain/Sex: ICR/FEMALE, Target Tissue: Type of Lesion: FORESTOMACH: TUMOR, Dose [Carcinogen]: 1 MG IN 0.2 ML CORN OIL 2/WK FOR 4 WK","94%, 100%, -6%, not significant"
O=C(O)/C=C/c1ccccc1,"tumour outcome (control, treated, inhibition, significance)","Carcinogen: BENZO[A]PYRENE, 50-32-8, Dose [Inhibitor]: 0.06 MMOL/G OF DIET DAILY STARTING 7 D BEFORE AND CONTINUING THROUGH 3 D AFTER CARCINOGEN TREATMENT FOLLOWED BY OBSERVAT, Route [Inhibitor]: ORAL, Species: MOUSE, Strain/Sex: ICR/FEMALE, Target Tissue: Type of Lesion: FORESTOMACH: NEOPLASM, Dose [Carcinogen]: 1 MG IN 0.2 ML CORN OIL 2/WK FOR 4 WK","97%, 100%, -3%, not significant and 100%, 94%, 6%, not significant"
C=C(C)[C@@H](CC=C(C)C)CC12C[C@@H](CC=C(C)C)C(C)(C)C(CC=C(C)C)(C(=O)/C(=C(\O)c3ccc(O)c(O)c3)C1=O)C2=O (stereo partly drawn),outcome,"Dose [Inhibitor]: 0, 100, 500 PPM FOR 8 WKS STARTING AT 6 WKS OF AGE TO 1 WK AFTER CARCINOGEN EXPOSURE (STUDY DURATION: 32 WKS), Dose [Inhibitor]: 0, 100, 500 PPM FOR 8 WKS STARTING AT 6 WKS OF AGE TO 1 WK AFTER CARCINOGEN EXPOSURE (STUDY DURATION: 32 WKS), Species: RAT, Strain/Sex: F344/MALE (?,26)/(?,16), Target Tissue: Type of Lesion: TONGUE: SQUAMOUS CELL CARCINOMA","(13/26) 50%; (2/16) 12.5%, 75%, p<0.02; (1/16) 6.3%, 87%, p<0.005"
same,outcome,"Dose [Inhibitor]: 0, 100, 500 PPM FOR 8 WKS STARTING AT 6 WKS OF AGE TO 1 WK AFTER CARCINOGEN EXPOSURE (STUDY DURATION: 32 WKS), Dose [Inhibitor]: 0, 100, 500 PPM FOR 8 WKS STARTING AT 6 WKS OF AGE TO 1 WK AFTER CARCINOGEN EXPOSURE (STUDY DURATION: 32 WKS), Species: RAT, Strain/Sex: F344/MALE (?/26)/(?,16), Target Tissue: Type of Lesion: TONGUE: PAPILLOMA","(4/26) 15.4%; (1/16) 6.3%, 59.1%; (1/16) 6.3%, 59.1%"
same,outcome,"Dose [Inhibitor]: 100, 500 PPM STARTING 1 WK AFTER CARCINOGEN FOR 22 WKS (STUDY DURATION: 32 WKS), Species: RAT, Strain/Sex: F344/MALE (?,26)/(?,15), Target Tissue: Type of Lesion: TONGUE: PAPILLOMA","(4/26) 15%; (3/15) 20%, -30%; (2/15) 13%, 14%"
same,outcome,"Dose [Inhibitor]: 100, 500 PPM STARTING 1 WK AFTER CARCINOGEN FOR 22 WKS (STUDY DURATION: 32 WKS), Species: RAT, Strain/Sex: F344/MALE (?,26)/(?,15), Target Tissue: Type of Lesion: TONGUE: SQUAMOUS CELL CARCINOMA","(13/26) 50%; (1/15) 6.7%, 87%, p<0.05; (0/15) 0%, 100%, p<0.001"
C#C[C@]1(O)CC[C@H]2[C@@H]3CCc4cc(O)ccc4[C@H]3[C@H](OC)C[C@@]21C,"tumour outcome (control, treated, inhibition, significance)","Carcinogen: N-METHYL-N-NITROSOUREA, 684-93-5, Dose [Inhibitor]: 0, 24 UG 3/WK FOR THE DURATION OF STUDY BEGINNING 7 D PRIOR TO CARCINOGEN DOSE (STUDY DURATION: 187 D), Route [Inhibitor]: SUBCUTANEOUS, Species: RAT, Strain/Sex: SPRAGUE-DAWLEY/FEMALE, Target Tissue: Type of Lesion: MAMMARY GLAND: TUMOR, Dose [Carcinogen]: 50 MG/KG BW ONCE","100%, 90%, 10%, not significant"
same,"tumour outcome (control, treated, inhibition, significance)","Carcinogen: N-METHYL-N-NITROSOUREA, 684-93-5, Dose [Inhibitor]: 10 UG DAILY STARTING SIMULTANEOUSLY WITH CARCINOGEN TREATMENT AND CONTINUING FOR DURATION OF STUDY (STUDY DURATION: 145, Route [Inhibitor]: INJECTION, Species: RAT, Strain/Sex: SPRAGUE-DAWLEY/FEMALE, Target Tissue: Type of Lesion: MAMMARY GLAND: TUMOR, Dose [Carcinogen]: 5 MG/100 G BW AT 0, 4 AND 8 WK OF STUDY","86%, 54%, 37%, not calculated"
